Measurements: patent publication US9549560B2, “Pesticidal compositions and related methods” (DOW AGROSCIENCES LLC, priority 2013, dated 2017)

How the values were obtained:
[1] = test system: Green Peach Aphid (Myzus persicae); assay: Bioassay for Green Peach Aphid (GPA) (MYZUPE), foliar spray on cabbage seedlings; assay type: in vivo; conditions: 72 h, 200 ppm foliar spray, graded after three days, Abbott corrected % control, read-out: % Control (or Mortality) rating, GPA
Experimental: Cabbage seedlings grown in 3-inch pots, with 2-3 small (3-5 cm) true leaves, were used as test substrate. The seedlings were infested with 20-50 GPA (wingless adult and nymph stages) one day prior to chemical application. Four pots with individual seedlings were used for each treatment. Test compounds (2 mg) were dissolved in 2 mL of acetone/methanol (1:1) solvent, forming stock solutions of 1000 ppm test compound. The stock solutions were diluted 5× with 0.025% Tween 20 in H2O to obtain the solution at 200 ppm test compound. A hand-held aspirator-type sprayer was used for spraying a solution to both sides of […] leaves until runoff. Reference plants (solvent check) were sprayed with the diluent only containing 20% by volume of acetone/methanol (1:1) solvent. Treated plants were held in a holding room for three days at approximately 25° C. and ambient relative humidity (RH) prior to grading. Evaluation was conducted by counting the number of live aphids per plant under a microscope. Percent control was measured by using Abbott's correction formula (W. S. Abbott, “A Method of Computing the Effectiveness of an Insecticide,” J. Econ. Entomol. 18 (1925), pp. 265-267) as follows. Corrected % Control=100*(X−Y)/X
X=No. of live aphids on solvent check plants and
Y=No. of live aphids on treated plants
(§1) Biological Data for Green Peach Aphid (GPA) (MYZUPE) and Sweetpotato Whitefly-crawler (WF) (BEMITA)” (See Table Section).

[2] = test system: Sweetpotato Whitefly-Crawler (Bemisia tabaci); assay: Insecticidal test for Sweetpotato Whitefly-Crawler (WF) (BEMITA) in foliar spray assay on cotton plants; assay type: in vivo; conditions: 216 h, 200 ppm foliar spray, graded after 9 days, Abbott corrected % control, read-out: % Control (or Mortality) rating, WF
Experimental: Cotton plants (Gossypium hirsutum) grown in 3-inch pots, with 1 small (4-5 cm) true leaves, were used as test substrate. The plants were infested with 200-400 whitefly eggs 4-5 days prior to chemical application. Four pots with individual plants were used for each treatment. Test compounds (2 mg) were dissolved in 1 mL of acetone solvent, forming stock solutions of 2000 ppm test compound. The stock solutions were diluted 10× with 0.025% Tween 20 in H2O (diluents) to obtain the solution at 200 ppm test compound. A hand-held aspirator-type sprayer was used for spraying a solution to both sides of cotton leaves until runoff. Reference plants (solvent check) were sprayed with the diluent only containing 10% by volume of acetone solvent. Treated plants were held in a holding room for 9 days at approximately 25° C. and ambient relative humidity (RH) prior to grading. Evaluation was conducted by counting the number of live 3-4 nymph stage per plant under a microscope. Percent control was measured by using Abbott's correction formula (W. S. Abbott, “A Method of Computing the Effectiveness of an Insecticide,” J. Econ. Entomol. 18 (1925), pp. 265-267) as follows. Corrected % Control=100*(X−Y)/X
X=No. of live nymphs on solvent check plants and
Y=No. of live nymphs on treated plants.
as §1

| SMILES | mortality at 200 ppm [1] [%] | mortality at 200 ppm [2] [%] |
| --- | --- | --- |
| CC(CSCCC(F)(F)F)C(=O)N(C)c1cn(-c2ccc[n+]([O-])c2)nc1Cl (stereo not shown) [FA5, 3-(3-Chloro-4-(N,2-dimethyl-3-((3,3,3-trifluoropropyl)thio)propanamido)-1H-pyrazol-1-yl)pyridine 1-oxide] | 80 to 100 | 80 to 100 |
| CCN(C(=O)C(C)C[S+]([O-])CCC(F)(F)F)c1cn(-c2cc(F)c[n+]([O-])c2)nc1Cl (stereo not shown) [FA6, 3-(3-Chloro-4-(N-ethyl-2-methyl-3-((3,3,3-trifluoropropyl)sulfinyl)propanamido)-1H-pyrazol-1-yl)-5-fluoropyridine 1-oxide] | 80 to 100 | 80 to 100 |
| C#CCN(C(=O)C(C)C[S+]([O-])CCC(F)(F)F)c1cn(-c2ccc[n+]([O-])c2)nc1Cl (stereo not shown) [FA7, 3-(3-Chloro-4-(2-methyl-N-(prop-2-yn-1-yl)-3-((3,3,3-trifluoropropyl)sulfinyl)propanamido)-1H-pyrazol-1-yl)pyridine 1-oxide] | 80 to 100 | 80 to 100 |
| CC(C[S+]([O-])CCC(F)(F)F)C(=O)N(C)c1cn(-c2ccc[n+]([O-])c2)nc1Cl (stereo not shown) [FA8, 3-(3-Chloro-4-(N,2-dimethyl-3-((3,3,3-trifluoropropyl)sulfinyl)propanamido)-1H-pyrazol-1-yl)pyridine 1-oxide] | 80 to 100 | 80 to 100 |
| CCN(C(=O)C(C)C[S+]([O-])CCC(F)(F)F)c1cn(-c2ccc[n+]([O-])c2)nc1Cl (stereo not shown) [FA9, 3-(3-Chloro-4-(N-ethyl-2-methyl-3-((3,3,3-trifluoropropyl)sulfinyl)propanamido)-1H-pyrazol-1-yl)pyridine 1-oxide] | 80 to 100 | 80 to 100 |
| CCN(C(=O)C(C)C[S+]([O-])CCC(F)(F)F)c1cn(-c2ccc[n+]([O-])c2)nc1C (stereo not shown) [FA10, 3-(4-(N-Ethyl-2-methyl-3-((3,3,3-trifluoropropyl)sulfinyl)propanamido)-3-methyl-1H-pyrazol-1-yl)pyridine 1-oxide] | 80 to 100 | 0 to 80 |
| CCN(C(=O)CS(C)(=O)=O)c1cn(-c2ccc[n+]([O-])c2)nc1Cl [FA11, 3-(3-chloro-4-(N-ethyl-2-(methylsulfonyl)acetamido)-1H-pyrazol-1-yl)pyridine 1-oxide] | 80 to 100 | 0 to 80 |
| CC(C(=O)N(C)c1cn(-c2ccc[n+]([O-])c2)nc1Cl)S(C)(=O)=O (stereo not shown) [FA12, 3-(3-chloro-4-(N-methyl-2-(methylsulfonyl)propanamido)-1H-pyrazol-1-yl)pyridine 1-oxide] | 80 to 100 | 80 to 100 |
